From patent publication US11453632B2, “1-phenyl-2-phenylethane derivative” (KAO CORPORATION, priority 2018, dated 2022)

What was measured:
ERβ LBD = target: T1, ERβ LBD (Homo sapiens, UniProt Q92731); assay: Ability to bind to ERβ: pBIND-ERβ LBD / GAL4 luciferase reporter in HEK293 cells; type: cell-based; design: key: RLU = firefly luminescence / Renilla luminescence; settings: negative control 0.0118997
T1 construct: host or cells: HEK293
Experimental: This evaluation system is a system exploiting difference in the sequence of the ligand binding domain (LBD) between ERα and ERβ (J Endocrinol 163: 379-383 (1999)), and enables selective activation of ERβ to be evaluated by determining the binding of a ligand to LBD and the activation of ER.
A human kidney-derived cell line HEK293 was cultured (37° C., 5% CO2) in Dulbecco's modified Eagle medium (hereinafter, abbreviated to DMEM) containing 10% (v/v) fetal bovine serum (FBS) and penicillin/streptomycin.
2) Measurement of Binding Activity Against ERs
This measurement was carried out according to the method described in JP-B-5990058. Specifically, HEK293 cells were inoculated at a cell density of 4.0×10^4 cells/well to a 96-well plate. After 12 hours therefrom, the medium was replaced with a culture solution (DMEM containing 5% (v/v) charcoal-treated serum). The cells were cotransfected with pBIND-ERα for the expression of ERα LBD or pBIND-ERβ for the expression of ERβ LBD (Promega Corp.) and pGL4.35[luc2P/9XGAL4UAS/Hygro](Promega Corp.) using Lipofectamine 2000 (Invitrogen Corp.) according to the protocol attached to the product. 24 hours after transfection, the medium was replaced with a culture solution containing a test sample, followed by culture for another 24 hours. The activity measurement of firefly luciferase (index for the ligand binding activity of ER) and Renilla reniformis luciferase (index for the transfection efficiency of the plasmids) was carried out using Dual-Glo™ Luciferase Assay System (Promega Corp.) according to the attached protocol. The luminescence intensity of the firefly luciferase was divided by the luminescence intensity of the Renilla reniformis luciferase to calculate a relative light unit (RLU).

ERα = target: T2, ERα (Homo sapiens, UniProt P03372); assay: Ability to activate transcription mediated by ERα (pcDNA3-ERα, pERE luciferase, HEK293 cells); type: cell-based; settings: negative control 0.004573
T2 construct: host or cells: HEK293
T2 sequence (P03372 1-595): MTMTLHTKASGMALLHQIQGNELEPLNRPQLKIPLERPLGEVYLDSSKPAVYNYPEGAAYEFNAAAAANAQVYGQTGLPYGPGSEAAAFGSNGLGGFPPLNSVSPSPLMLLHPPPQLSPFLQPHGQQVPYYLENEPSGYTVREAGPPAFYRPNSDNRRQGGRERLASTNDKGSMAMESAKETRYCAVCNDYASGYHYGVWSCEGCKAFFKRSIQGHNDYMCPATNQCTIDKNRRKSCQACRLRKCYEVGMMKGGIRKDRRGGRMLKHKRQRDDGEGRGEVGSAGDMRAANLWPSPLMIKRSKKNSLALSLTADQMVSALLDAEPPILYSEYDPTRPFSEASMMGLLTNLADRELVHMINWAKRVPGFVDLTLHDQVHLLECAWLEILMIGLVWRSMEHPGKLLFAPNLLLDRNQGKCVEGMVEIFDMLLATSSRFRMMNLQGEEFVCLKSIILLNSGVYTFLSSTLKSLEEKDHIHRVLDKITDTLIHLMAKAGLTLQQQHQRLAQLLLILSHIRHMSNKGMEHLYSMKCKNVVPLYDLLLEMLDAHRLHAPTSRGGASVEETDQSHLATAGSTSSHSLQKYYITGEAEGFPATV
Experimental: (§1) 1) Experimental Method (Measurement of Transcriptional Activity Mediated by ERs)
(§2) HEK293 cells were inoculated at a cell density of 4.0×10^4 cells/well to a 96-well plate. After 12 hours therefrom, the medium was replaced with a culture solution (DMEM containing 5% (v/v) charcoal-treated serum). The cells were cotransfected with pcDNA3-ERα or pcDNA3-ERβ (Promega Corp.) and pERE and pRL-CMV (Promega Corp.) using Lipofectamine 2000 (Invitrogen Corp.) according to the protocol attached to the product. 24 hours after transfection, the medium was replaced with a culture medium containing a test sample, followed by culture for another 24 hours. Then, luciferase activity was measured using Dual-Glo™ Luciferase Assay System (Promega Corp.) according to the attached protocol. The luminescence intensity of firefly luciferase (index for the ability to activate transcription mediated by ERE) was divided by the luminescence intensity of Renilla reniformis luciferase (index for the transfection efficiency of the plasmids) to calculate a relative light unit (RLU).

ERβ = target: T3, ERβ (Homo sapiens, UniProt Q92731); assay: Ability to activate transcription mediated by ERβ (pcDNA3-ERβ, pERE luciferase, HEK293 cells); type: cell-based; settings: negative control 0.001475
T3 construct: host or cells: HEK293
Experimental: as §1, §2

[1] = test system: uterus of ovariectomized rat; assay: Uterus weight in ovariectomized (OVX) rat; type: in vivo
Experimental: 8-week-old female Crl:CD (SD) rats were obtained from Charles River Laboratories Japan, Inc. and individually identified by the ear punching method on the receipt date. Then, an acclimatization period was established for 1 week. The animals were raised in a rearing room under a set environment involving a temperature of 22±3° C., a humidity of 50±20%, air ventilation from 13 to 17 times/hour, and a lighting time from 8:00 to 20:00. During the acclimatization period, the rats were allowed to freely ingest solid feed CRF-1 (Oriental Yeast Co., Ltd.). Since the feeding with CRF-1, the rats were allowed to freely ingest customized feed AIN-93G (Oriental Yeast Co., Ltd.) free from components derived from soybeans.
On the end date of acclimatization and the following day, the flank cavity was opened under isoflurane anesthesia to harvest the right and left ovaries including fallopian tubes. Other non-OVX rats were subjected to only opening and suture (sham surgery). Immediately thereafter, an antibiotic was subcutaneously administered at a dose of 100 μl/animal. After the surgery, the sham surgery or OVX animals were given customized feed and raised for approximately 1 week.
From 1.5 hours before a shift from the light phase to the dark phase (18:30), a negative solvent (DMSO) or a test substance was subcutaneously administered at a dose of 0.5 ml/kg to the back of the neck according to Table 3 described below using a syringe and an injection needle.
After the completion of all procedures of measurement and analysis, the rats were euthanized by blood letting under isoflurane anesthesia, and the uterus was harvested. Wet weights were measured.
Skin temperatures differed largely among individuals, and the Smirnov-Grubbs test was conducted in order to exclude outliers beforehand. Results of measuring tail skin temperatures and results of measuring uterus weights were statistically analyzed by testing using the Dunnett's test.

T1 sequence (Q92731 264-498 limits assumed): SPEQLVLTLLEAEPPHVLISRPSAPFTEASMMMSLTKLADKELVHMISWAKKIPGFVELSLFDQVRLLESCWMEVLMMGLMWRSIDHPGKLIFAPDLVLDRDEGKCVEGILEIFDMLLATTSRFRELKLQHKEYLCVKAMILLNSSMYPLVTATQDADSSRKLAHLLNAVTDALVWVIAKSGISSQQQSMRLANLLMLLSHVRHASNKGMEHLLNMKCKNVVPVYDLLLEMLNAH
T3 sequence (Q92731 whole entry): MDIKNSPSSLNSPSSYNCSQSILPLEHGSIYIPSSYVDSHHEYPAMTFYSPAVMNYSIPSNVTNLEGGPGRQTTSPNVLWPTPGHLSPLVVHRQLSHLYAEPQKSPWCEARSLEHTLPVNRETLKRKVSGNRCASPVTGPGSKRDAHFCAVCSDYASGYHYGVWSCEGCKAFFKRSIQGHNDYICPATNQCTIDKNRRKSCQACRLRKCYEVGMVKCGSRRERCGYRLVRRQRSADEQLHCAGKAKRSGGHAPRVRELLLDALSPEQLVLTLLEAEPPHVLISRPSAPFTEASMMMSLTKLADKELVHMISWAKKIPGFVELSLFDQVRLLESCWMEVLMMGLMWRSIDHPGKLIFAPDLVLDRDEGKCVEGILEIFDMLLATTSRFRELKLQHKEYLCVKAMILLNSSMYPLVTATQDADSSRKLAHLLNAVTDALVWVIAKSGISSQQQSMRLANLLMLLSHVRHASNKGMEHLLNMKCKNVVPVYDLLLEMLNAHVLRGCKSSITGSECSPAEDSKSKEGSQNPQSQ

Oc1ccc(CC(C=C(F)F)c2ccc(O)cc2F)c(F)c1 (centres unmarked) [Compound 17-F, 4,4′-(4,4-difluorobut-3-ene-1,2-diyl)bis(3-fluorophenol)]
relative light unit (RLU), ligand binding activity ERβ (ERβ LBD; 0.01 nM): 0.4273
relative light unit (RLU), ligand binding activity ERβ (ERβ LBD; 0.1 nM): 1.771
relative light unit (RLU), ligand binding activity ERβ (ERβ LBD; 1 nM): 2.021
relative light unit (RLU), ligand binding activity ERβ (ERβ LBD; 10 nM): 2.367
relative light unit (RLU), ligand binding activity ERβ (ERβ LBD; 100 nM): 2.186
relative light unit (RLU), transcription activation ERα (ERα; 0.1 pM): 0.008213
relative light unit (RLU), transcription activation ERα (ERα; 1 pM): 0.01023
relative light unit (RLU), transcription activation ERα (ERα; 10 pM): 0.01835
relative light unit (RLU), transcription activation ERα (ERα; 100 pM): 0.04125
relative light unit (RLU), transcription activation ERα (ERα; 1000 pM): 0.06202
relative light unit (RLU), transcription activation ERα (ERα; 10000 pM): 0.05401
relative light unit (RLU), transcription activation ERβ (ERβ; 0.01 pM): 0.002468
relative light unit (RLU), transcription activation ERβ (ERβ; 0.1 pM): 0.004255
relative light unit (RLU), transcription activation ERβ (ERβ; 1 pM): 0.01104
relative light unit (RLU), transcription activation ERβ (ERβ; 10 pM): 0.03023
relative light unit (RLU), transcription activation ERβ (ERβ; 100 pM): 0.03238
relative light unit (RLU), transcription activation ERβ (ERβ; 1000 pM): 0.03342
relative light unit (RLU), transcription activation ERβ (ERβ; 10000 pM): 0.03507
uterus wet weight (FIG. 6) ([1]; 4 μg/kg/day subcutaneous, vs negative solvent group): no change in uterus weight was confirmed
uterus wet weight (FIG. 6) ([1]; increased dose of compound 17-F (40, 400 μg/kg/day) subcutaneous): elevated in a concentration-dependent manner
